Experimental data reported in patent publication US6448273B1, “Orally active iron (III) chelators” (BTG International Limited, priority 1997, dated 2002).
Where a name gives a salt, the structure may show the parent alone. Read-outs that look alike come from different tables or passages of the source. One block for each compound: values may come before it.

Columns and labels:
[1] = Distribution coefficient DpH7.4 (Kpart), octanol/MOPS pH 7.4; type: physicochemical
Source text: The requirements for orally active chelators are set out in Table 4 of Hider et al as (i) good absorption from tile gastrointestinal tract, (ii) efficient liver extraction, (iii) poor entry into peripheral cells such as thymus, muscle, heart and bone marrow and (iv) poor ability to penetrate the blood-brain barrier and maternal/placental barriers.

[2] = pKa of the ligand; type: physicochemical
[3] = Iron (III) complex stability constant Logβ3; type: physicochemical
[4] = pM for Iron III (affinity for iron as Fe III); type: physicochemical; details: negative log ferric ion concentration; total iron 10^-6 M, ligand 10^-5 M
Source text: The present inventors now have provided a group of 3-hydroxypyridin-4-one iron chelators having improved properties as compared to the prior art as assessed against the criteria set out above. […] Preferred compounds have efficiency of iron mobilisation of in excess of 52% when given orally to rats. […]

[5] = Iron III Mobilisation Efficacy Assay in Rat: Oral Administration; type: in vivo; details: for Efficacy: iron mobilisation less control
Description: Control rats were given an equivalent volume of water. The rats were placed in individual metabolic cages and their urine and faeces collected. One hour after the administration they were allowed access to food, with no restriction on water being made throughout the study period. The investigation was terminated 24 hours after the ^59Fe ferritin administration when rats were sacrificed and their livers and gastrointestinal tracts, including all contents including faeces, were removed for gamma counting.

[6] = method marked (p), first pKa, read-out: pKa, first value (p)
[7] = method marked (p), second pKa, read-out: pKa, second value (p)
[8] = method marked (s), first pKa, read-out: pKa, first value (s)
[9] = method marked (s), second pKa, read-out: pKa, second value (s)

- melting point: 168 to 169 °C
Compound: CCn1ccc(=O)c(O)c1CO (as salt: hydrochloride) [CP359, 1-Ethyl-2-hydroxymethyl-3-hydroxy-pyridin-4(1H)-one hydrochloride]

- melting point: 140 to 143 °C
Compound: Cc1cc(=O)c(O)c(CO)n1C (as salt: hydrochloride) [CP360, 1,6-Dimethyl-2-hydroxymethyl-3-hydroxy-pyridin-4(1H)-one hydrochloride]

- melting point: 208 to 212 °C
Compound: Cc1cc(=O)c(O)c(C(C)O)n1C (stereo not drawn) (as salt: hydrochloride) [CP361, 1,6-Dimethyl-2-(1-hydroxyethyl)-3-hydroxy-pyridin-4(1H)-one hydrochloride]

- melting point: 205 to 207 °C
Compound: COC(C)c1c(O)c(=O)cc(C)n1C (stereo not drawn) (as salt: hydrochloride) [CP363, 1,6-Dimethyl-2-(1-methoxyethyl)-3-hydroxy-pyridin-4(1H)-one hydrochloride]

- melting point: 157 to 159 °C
Compound: Cn1ccc(=O)c(O)c1CO (as salt: hydrochloride) [CP364, 1-Methyl-2-hydroxymethyl-3-hydroxy-pyridin-4(1H)-one hydrochloride]

- melting point: 142 to 143 °C
Compound: O=C(OCCCn1ccc(=O)c(O)c1CO)c1ccccc1 (as salt: hydrochloride) [CP367, 1-[(3-Benzoyloxy)propyl]-2-hydroxymethyl-3-hydroxy-pyridin-4(1H)-one hydrochloride]

- melting point: 160 to 162 °C
Compound: CCn1c(C)cc(=O)c(O)c1CO (as salt: hydrochloride) [CP369, 1-Ethyl-2-hydroxymethyl-3-hydroxy-6-methyl-pyridin-4(1H)-one hydrochloride]

- melting point: 174 to 176 °C
Compound: CCn1c(C)cc(=O)c(O)c1COC (as salt: hydrochloride) [CP370, 1-Ethyl-2-methoxymethyl-3-hydroxy-6-methyl-pyridin-4(1H)-one hydrochloride]

- melting point: 117 to 120 °C
Compound: CC(O)c1c(O)c(=O)ccn1CCCO (stereo not drawn) (as salt: hydrochloride) [CP372, 1-(3-hydroxypropyl)-2-(1-hydroxyethyl)-3-hydroxy-pyridin-4(1H)-one hydrochloride]

- melting point: 195 to 199 °C
Compound: CCOC(C)c1c(O)c(=O)cc(C)n1C (stereo not drawn) (as salt: hydrochloride) [CP373, 1,6-Dimethyl-2-(1-ethoxyethyl)-3-hydroxy-pyridin-4(1H)-one hydrochloride]

- melting point: 221 to 223 °C
Compound: CCC(O)c1c(O)c(=O)cc(C)n1C (stereo not drawn) (as salt: hydrochloride) [CP374, 1,6-Dimethyl-2-(1-hydroxypropyl)-3-hydroxy-pyridin-4(1H)-one hydrochloride]

- melting point: 225 to 227 °C
Compound: CCC(OC)c1c(O)c(=O)cc(C)n1C (stereo not drawn) (as salt: hydrochloride) [CP375, 1,6-Dimethyl-2-(1-methoxypropyl)-3-hydroxy-pyridin-4(1H)-one hydrochloride]

- melting point: 161 to 163 °C
Compound: COCc1cc(=O)c(O)c(COC)n1C (as salt: hydrochloride) [CP388, 2,6-Dimethoxymethyl-1-methyl-3-hydroxypyridin-4(1H)-one hydrochloride]

- melting point: 238 °C (dec.)
Compound: CNC(=O)c1c(O)c(=O)cc(C)n1C (as salt: hydrochloride) [CP502, 1,6-Dimethyl-3-hydroxy-4(1H)-pyridinone-2-carboxy-(N-methyl)-amide hydrochloride]

- melting point: 204 to 206 °C
Compound: COCCNC(=O)c1c(O)c(=O)cc(C)n1C (as salt: hydrochloride) [CP506, 1,6-Dimethyl-3-hydroxy-4(1H)-pyridinone-2-carboxy-(N-2′-methoxyethyl)-amide hydrochloride]

- melting point: 178 to 181 °C
Compound: Cc1cc(=O)c(O)c(C(=O)NCCO)n1C (as salt: hydrochloride) [CP507, 1,6-Dimethyl-3-hydroxy-4(1H)-pyridinone-2-carboxy-(N-2′-hydroxyethyl)-amide hydrochloride]

- melting point: 219 °C (dec.)
Compound: Cc1cc(=O)c(O)c(C(=O)N(C)C)n1C (as salt: hydrochloride) [CP508, 1,6-Dimethyl-3-hydroxy-4(1H)-pyridinone-2-carboxy-(N,N-dimethyl)-amide hydrochloride]

- DpH 7.4 [1]: 0.14
- pKa, first value (s) ([2]; method marked (s), first pKa): 2.88
- pKa, second value (s) ([2]; method marked (s), second pKa): 9.05
- Logβ3 [3]: 35.25
- pMpH 7.45 [4]: 20.96
Compound: CCn1ccc(=O)c(O)c1CO [CP359, 1-Ethyl-2-hydroxymethyl-3-hydroxy-pyridin-4(1H)-one hydrochloride]

- DpH 7.4 [1]: 0.098
- pKa, first value (s) ([2]; method marked (s), first pKa): 3.37
- pKa, second value (s) ([2]; method marked (s), second pKa): 9.42
- Logβ3 [3]: 35.51
- pMpH 7.45 [4]: 20.43
Compound: Cc1cc(=O)c(O)c(CO)n1C [CP360, 1,6-Dimethyl-2-hydroxymethyl-3-hydroxy-pyridin-4(1H)-one hydrochloride]

- DpH 7.4 [1]: 0.25
- pKa, first value (s) ([2]; method marked (s), first pKa): 3.55
- pKa, second value (s) ([2]; method marked (s), second pKa): 8.97
- Logβ3 [3]: 3.52
- pMpH 7.45 [4]: 21.47
Compound: Cc1cc(=O)c(O)c(C(C)O)n1C (stereo not drawn) [CP361, 1,6-Dimethyl-2-(1-hydroxyethyl)-3-hydroxy-pyridin-4(1H)-one hydrochloride]

- DpH 7.4 [1]: 0.42
Compound: COCc1c(O)c(=O)cc(C)n1C [CP362]

- DpH 7.4 [1]: 1.09
- pKa [2, 6]: 3.2
- pKa [2, 7]: 9.44
- pKa [2, 8]: 3.22
- pKa [2, 9]: 9.43
Compound: COC(C)c1c(O)c(=O)cc(C)n1C (stereo not drawn) [CP363, 1,6-Dimethyl-2-(1-methoxyethyl)-3-hydroxy-pyridin-4(1H)-one hydrochloride]
- Iron Mobilisation ([5]; 150 μmol/kg): 40.7 ± 2.4%
- Efficacy ([5]; 150 μmol/kg): 36.8%
- Iron Mobilisation ([5]; 300 μmol/kg): 66.9 ± 8.7%
- Efficacy ([5]; 300 μmol/kg): 63.0%
- Iron Mobilisation ([5]; 450 μmol/kg): 73.5 ± 8.1%
- Efficacy ([5]; 450 μmol/kg): 69.6%

- DpH 7.4 [1]: 0.048
- pKa [2, 6]: 3.13
- pKa [2, 7]: 9.22
- pKa, first value (s) ([2]; method marked (s), first pKa): 2.93
- pKa [2, 9]: 9.12
- Logβ3 [3]: 35.3
- pMpH 7.45 [4]: 20.75
Compound: Cn1ccc(=O)c(O)c1CO [CP364, 1-Methyl-2-hydroxymethyl-3-hydroxy-pyridin-4(1H)-one hydrochloride]

- DpH 7.4 [1]: 0.27
- pKa, first value (s) ([2]; method marked (s), first pKa): 3.11
- pKa, second value (s) ([2]; method marked (s), second pKa): 8.74
- Logβ3 [3]: 34.8
- pMpH 7.45 [4]: 21.3
Compound: CCn1ccc(=O)c(O)c1C(C)O (stereo not drawn) [CP365, 1-Ethyl-2-(1-hydroxyethyl)-3-hydroxy-pyridin-4(1H)-one hydrochloride]

- DpH 7.4 [1]: 5.61
- pKa [2, 6]: 2.6
- pKa [2, 7]: 9.07
- pKa [2, 8]: 2.7
- pKa [2, 9]: 8.95
Compound: O=C(OCCCn1ccc(=O)c(O)c1CO)c1ccccc1 [CP367, 1-[(3-Benzoyloxy)propyl]-2-hydroxymethyl-3-hydroxy-pyridin-4(1H)-one hydrochloride]

- DpH 7.4 [1]: 0.223
- pKa, first value (s) ([2]; method marked (s), first pKa): 3.28
- pKa, second value (s) ([2]; method marked (s), second pKa): 9.38
- Logβ3 [3]: 35.6
- pMpH 7.45 [4]: 20.35
Compound: CCn1c(C)cc(=O)c(O)c1CO [CP369, 1-Ethyl-2-hydroxymethyl-3-hydroxy-6-methyl-pyridin-4(1H)-one hydrochloride]

- DpH 7.4 [1]: 1.08
Compound: CCn1c(C)cc(=O)c(O)c1COC [CP370, 1-Ethyl-2-methoxymethyl-3-hydroxy-6-methyl-pyridin-4(1H)-one hydrochloride]

- DpH 7.4 [1]: 0.075
- pKa, first value (s) ([2]; method marked (s), first pKa): 2.96
- pKa, second value (s) ([2]; method marked (s), second pKa): 8.69
- Logβ3 [3]: 34.67
- pMpH 7.45 [4]: 21.48
Compound: CC(O)c1c(O)c(=O)ccn1CCCO (stereo not drawn) [CP372, 1-(3-hydroxypropyl)-2-(1-hydroxyethyl)-3-hydroxy-pyridin-4(1H)-one hydrochloride]

- DpH 7.4 [1]: 3.32
Compound: CCOC(C)c1c(O)c(=O)cc(C)n1C (stereo not drawn) [CP373, 1,6-Dimethyl-2-(1-ethoxyethyl)-3-hydroxy-pyridin-4(1H)-one hydrochloride]

- DpH 7.4 [1]: 3.85
Compound: CCC(OC)c1c(O)c(=O)cc(C)n1C (stereo not drawn) [CP375, 1,6-Dimethyl-2-(1-methoxypropyl)-3-hydroxy-pyridin-4(1H)-one hydrochloride]
- Iron Mobilisation ([5]; 150 μmol/kg): 40.2 ± 8.5%
- Efficacy ([5]; 150 μmol/kg): 36.3%
- Iron Mobilisation ([5]; 450 μmol/kg): 72.0 ± 8.2%
- Efficacy ([5]; 450 μmol/kg): 68.1%

- DpH 7.4 [1]: 0.04
Compound: Cn1c(CO)cc(=O)c(O)c1CO [CP387]

- DpH 7.4 [1]: 0.40
- pKa [2, 6]: 2.93
- pKa [2, 7]: 8.87
- pKa [2, 8]: 2.73
- pKa [2, 9]: 8.77
- Logβ3 [3]: 34.5
- pMpH 7.45 [4]: 21.1
Compound: COCc1cc(=O)c(O)c(COC)n1C [CP388, 2,6-Dimethoxymethyl-1-methyl-3-hydroxypyridin-4(1H)-one hydrochloride]

- DpH 7.4 [1]: 0.04
- pKa [2, 6]: 2.83
- pKa [2, 7]: 8.38
- pKa [2, 8]: 2.64
- pKa [2, 9]: 8.36
- Logβ3 [3]: 35.78
- pMpH 7.45 [4]: 23.42
Compound: CNC(=O)c1c(O)c(=O)cc(C)n1C [CP502, 1,6-Dimethyl-3-hydroxy-4(1H)-pyridinone-2-carboxy-(N-methyl)-amide hydrochloride]
